Publication PMC5722316, “Synthesis of novel purpurealidin analogs and evaluation of their effect on the cancer-relevant potassium channel KV10.1” (PLoS ONE, 2017)
Where two headings read alike, the source gives them in different places.

Columns and labels:
hKV10.1a = biological target: T1, hKV10.1a (Homo sapiens, UniProt O95259); assay: Two-electrode voltage-clamp recordings of KV10.1 currents in Xenopus laevis oocytes; assay type: cell-based
T1 construct: expressed in transfected cells; host or cells: Xenopus laevis oocytes injected with cRNA transcribed from the hKV10.1a-pSGEM plasmid
T1 sequence (O95259 1-962 isoform O95259-2): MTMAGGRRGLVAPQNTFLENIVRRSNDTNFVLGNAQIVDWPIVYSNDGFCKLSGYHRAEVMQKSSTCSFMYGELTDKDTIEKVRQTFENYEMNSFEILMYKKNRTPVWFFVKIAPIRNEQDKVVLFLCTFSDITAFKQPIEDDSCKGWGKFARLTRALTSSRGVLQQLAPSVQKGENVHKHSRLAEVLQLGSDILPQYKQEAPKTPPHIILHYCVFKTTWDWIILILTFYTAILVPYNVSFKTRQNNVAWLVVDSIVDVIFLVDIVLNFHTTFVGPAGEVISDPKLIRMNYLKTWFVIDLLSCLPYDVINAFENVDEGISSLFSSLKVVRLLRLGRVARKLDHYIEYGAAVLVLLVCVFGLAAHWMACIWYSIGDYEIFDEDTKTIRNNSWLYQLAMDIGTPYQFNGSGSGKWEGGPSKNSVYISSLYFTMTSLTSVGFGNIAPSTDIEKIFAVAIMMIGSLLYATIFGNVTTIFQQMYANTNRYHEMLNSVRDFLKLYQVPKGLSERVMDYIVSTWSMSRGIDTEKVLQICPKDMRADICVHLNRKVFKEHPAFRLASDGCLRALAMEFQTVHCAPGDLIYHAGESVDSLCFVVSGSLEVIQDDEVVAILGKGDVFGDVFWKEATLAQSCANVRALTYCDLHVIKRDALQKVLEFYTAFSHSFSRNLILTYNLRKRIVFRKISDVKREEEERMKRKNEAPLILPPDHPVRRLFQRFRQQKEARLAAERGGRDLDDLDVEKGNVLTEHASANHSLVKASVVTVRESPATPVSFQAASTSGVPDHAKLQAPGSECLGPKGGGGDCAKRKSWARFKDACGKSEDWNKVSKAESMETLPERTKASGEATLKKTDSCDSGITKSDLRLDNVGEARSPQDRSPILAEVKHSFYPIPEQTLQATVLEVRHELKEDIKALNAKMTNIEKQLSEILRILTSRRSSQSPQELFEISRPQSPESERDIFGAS
Description: For the expression of hKV10.1a (GeneBank accession number: NM_002238.3) in Xenopus oocytes, the hKV10.1a-pSGEM plasmid was linearized with SfiI (ThermoFisher Scientific, Waltham, Massachusetts, USA) and transcribed using the T7 mMESSAGE-mMACHINE transcription kit (Ambion®, Carlsbad, California, USA).
Stage V-VI Xenopus laevis (African clawed frog) oocytes were isolated by partial ovariectomy. Mature female animals were purchased from Nasco (Fort Atkinson, Wisconsin, USA) and were housed in the Aquatic Facility (KU Leuven) in compliance with the regulations of the European Union (EU) concerning the welfare of laboratory animals as declared in Directive 2010/63/EU. The use of Xenopus laevis was approved by the Animal Ethics Committee of the KU Leuven (Project nr. P038/2017). Prior to harvesting the oocytes, the animals were anesthetized by a 15-min submersion in 0.1% tricaine methanesulfonate (pH 7.0). Isolated oocytes were defolliculated with 1.5 mg/mL collagenase.
Defolliculated oocytes were injected with 4 nL of cRNA at a concentration of 1 ng/nL using a micro-injector (Drummond Scientific®, Broomall, Pennsylvania, USA). The oocytes were incubated in a solution containing (in mM): NaCl, 96; KCl, 2; CaCl2, 1.8; MgCl2, 2 and HEPES, 5 (pH 7.4), supplemented with 50 mg/L gentamycin sulfate.
Two-electrode voltage-clamp recordings were performed at room temperature (18–22°C) using a Geneclamp 500 amplifier (Molecular Devices, USA) controlled by a pClamp data acquisition system (Axon Instruments®, Union City, California, USA). Whole cell currents from oocytes were recorded 1–4 days after injection. Bath solution composition was (in mM): NaCl, 96; KCl, 2; CaCl2, 1.8; MgCl2, 2 and HEPES, 5 (pH 7.5). Voltage and current electrodes were filled with a 3 M solution of KCl in H2O. Resistances of both electrodes were kept between 0.5 and 1.5 MΩ. The elicited KV10.1 currents were filtered at 1 kHz and sampled at 2 kHz using a four-pole low-pass Bessel filter. Leak subtraction was performed using a -P/4 protocol. KV10.1 currents were evoked by 2-s depolarizing pulses to 0 mV from a holding potential of -90 mV unless otherwise indicated.
All electrophysiological data are presented as means ± S.E.M of n ≥ 3 independent experiments unless otherwise indicated. All data was analyzed using pClamp Clampfit 10.4 (Molecular Devices®, Downingtown, Pennsylvania, USA) and OriginPro 8 (Originlab®, Northampton, Massachusetts, USA) or GraphPad Prism 5 software (GraphPad Software, Inc., San Diego, California, USA).

Q: Which melting point does the source give for `COc1ccc(C(=O)NCCc2cc(Br)c(OCCCN(C)C)c(Br)c2)cc1Cl` [Compound 5, 3-Chloro-N-[3,5-dibromo-4-[3-(dimethylamino)propoxy]phenethyl]-4-methoxybenzamide] here?
A: The melting point was 79 to 81 °C.

Q: And the “remaining current, % of the control current” value (hKV10.1a; 10 μM added during 20-s continuous step to 30 mV)?
A: Its value is “approximately 50%”.

Q: And the “reversibility of KV10.1 inhibition” value (hKV10.1a; 10 μM, wash-out)?
A: Its value is “reversible”.

Q: What about the “effect on KV10.1 inactivation (two-pulse protocol)” value (hKV10.1a; 10 μM, 1.5-s prepulse -140 mV to 50 mV, 0.5-s test pulse to 30 mV) of the same molecule?
A: The value was “an apparent inactivation is induced”.

Q: What about the inhibition at 10 µM (hKV10.1a; 10 μM, 2-s depolarizing pulses to 0 mV from -90 mV, read-out: KV10.1 current inhibition) of the same molecule?
A: Its inhibition at 10 µM is 51 ± 3%.

Q: What about the “shift of activation curve (ΔV1/2) to more negative potentials” value (hKV10.1a; 10 μM, ND96 (2 mM extracellular K+), Boltzmann fit) of the same molecule?
A: Its value is 21.0 ± 1.6 mV.

Q: And the “half-maximal voltage of activation (V1/2) in presence of compound” value (hKV10.1a; 10 μM, ND96 (2 mM extracellular K+), control V1/2 = 23.2 ± 0.4 mV)?
A: The value was 2.1 ± 0.4 mV.

Q: And the “slope factor k of activation curve in presence of compound” value (hKV10.1a; 10 μM, ND96, control k = 15.5 ± 0.4)?
A: The value was 13.8 ± 0.3.

Q: And the “time constant (τ) of wash-out” value (hKV10.1a; 10 μM, one phase association equation)?
A: The value was ~ 20 s.

Q: What about the “exponential time constant (τ) of wash-in” value (hKV10.1a; 10 μM, one phase decay equation) of the same molecule?
A: The value was 5.3 s.

Q: And the inhibition at 10 µM (hKV10.1a; 10 μM, oocyte clamped at -90 mV for 10 minutes, then 2-s pulse to 0 mV, read-out: KV10.1 current inhibition after clamping at -90 mV)?
A: Its inhibition at 10 µM is 53 ± 4%.

Q: What about the KV10.1 current inhibition (hKV10.1a; 40 μM, extracellular perfusion, average ± SEM) of the same molecule?
A: The KV10.1 current inhibition was 86.9 ± 1.3%.

Q: What about the inhibition at 40 µM (hKV10.1a; 40 μM, extracellular perfusion, average ± SEM, read-out: KV10.1 current inhibition) of the same molecule?
A: The inhibition at 40 µM was 87 ± 1%.

Q: What about the Hill coefficient (hKV10.1a; 8 concentrations 0.04 μM to 80 μM, logistic dose-response fit) of the same molecule?
A: The Hill coefficient was 1.6 ± 0.3.

Q: What about the IC50 (hKV10.1a; 8 concentrations 0.04 μM to 80 μM, logistic dose-response fit, read-out: IC50 of KV10.1 current inhibition) of the same molecule?
A: The IC50 was 7.7 ± 1 µM.

Q: What about the “competition plot with mibefradil” value (hKV10.1a; mixtures p*10 μM 5 and (1-p)*10 μM mibefradil, 7 ratios) of the same molecule?
A: The value was “compete for the same binding site”.
